Experimental data: PubChem BioAssay (NCI)
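In this assay, cells in 96-well plates receive the compound at five concentrations for 48 hours. Endpoints are linearly interpolated between the surrounding concentrations. Abbreviation: GI50, concentration required for 50% inhibition of growth. At the TGI there is no net growth.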

Tests used:
Experiment in all cases: inhibition of tumour cell growth, NCI panel, 48 h
[1] = tested on: SK-MEL-28 melanoma
[2] = tested on: TK-10 renal
[3] = tested on: ACHN renal
[4] = tested on: SN12C renal
[5] = tested on: SW-620 colon
[6] = tested on: DU-145 prostate
[7] = tested on: HS 578T breast
[8] = tested on: HT29 colon
[9] = tested on: HOP-92 NSCLC
[10] = tested on: NCI-H23 lung

Row | Compound | GI50 [1] [µM] | TGI [1] [µM] | GI50 [2] [µM] | TGI [2] [µM] | GI50 [3] [µM] | TGI [3] [µM] | GI50 [4] [µM] | TGI [4] [µM] | GI50 [5] [µM] | TGI [5] [µM] | GI50 [6] [µM] | TGI [6] [µM] | GI50 [7] [µM] | TGI [7] [µM] | GI50 [8] [µM] | TGI [8] [µM] | TGI [9] [µM] | GI50 [10] [µM] | TGI [10] [µM] | GI50 [9] [µM]
1 | COc1ccccc1Oc1nccc(-c2c(-c3ccc(F)cc3)ncn2C2CCNCC2)n1 | > 24.1 | > 25 | > 25 | > 25 | 15.4 | > 25 | > 25 | > 25 | > 25 | > 25 | > 25 | > 25 | > 6.75 | > 23 | 8.72 | > 25 |  |  |  | 
2 | CCOC(=O)C1(C)CCC(C(C(=O)O)C(=O)O)CC1=O (centres undefined) |  | > 100 |  | > 100 |  | > 100 |  | > 100 |  | > 100 |  |  |  |  |  | > 100 | > 100 |  |  | 
3 | O=C(O)CN(CCN(CC(=O)O)CC(=O)O)CC(=O)O.[Mn+2] | > 100 | > 100 | > 100 | > 100 | > 100 | > 100 | > 100 | > 100 | > 100 | > 100 | > 100 | > 100 | > 100 | > 100 | > 100 | > 100 |  | > 100 | > 100 | 
4 | COc1cc(/C=C/c2cc(/C=C/c3ccc(O)c(OC)c3)n(C(=O)c3ccccc3Br)n2)ccc1O | 2.57 | 8.71 | 3.85 | 33 |  |  | 2.22 | > 100 | 3.66 | > 100 | 3.29 | 34.8 | 2.75 | 48.6 |  |  | 9.65 | 2.68 | 16.9 | 3.82
5 | c1ccc(C(c2ccccc2)c2ccccn2)cc1 |  | > 100 |  | > 100 |  | > 100 |  | > 100 |  | > 100 |  |  |  |  |  | > 100 |  |  | > 100 | 
6 | CCCCCC/C=C\CCCCCCCCC(=O)c1cccc(OC)c1OC |  | > 100 |  | > 100 |  | > 100 |  | > 100 |  | > 100 |  | > 100 |  | > 100 |  | > 100 |  |  | > 100 | 
7 | COc1cc(/C=C2\NC(=O)C(Cc3cc(OC)c(OC)c(C)c3OC)N(C(C)=O)C2=O)c(OC)c(C)c1OC (centres undefined) |  | > 100 |  | > 100 |  | > 100 |  | > 100 |  | > 100 |  |  |  |  |  | > 100 | > 100 |  | > 100 | 
8 | NNC(=O)C(=O)NN=C(C(Cl)(Cl)CO)C(Cl)(Cl)CO |  | 97.9 |  | > 100 |  | > 100 |  | > 100 |  | 40.3 |  |  |  |  |  | > 100 | 83.7 |  | 92.9 | 
9 | O=C(CCCC(=O)Nc1ccc(Cl)cc1Cl)CC(=O)c1ccc2ccccc2c1 |  | > 100 |  | > 100 |  | > 100 |  | > 100 |  | > 100 |  |  |  |  |  | > 100 | > 100 |  | > 100 | 
10 | O=C1c2ccccc2N2OC3(N4CCOCC4)CCCC3C12c1ccccc1 (centres undefined) |  | > 100 |  |  |  | > 100 |  | > 100 |  | > 100 |  |  |  |  |  | > 100 | > 100 |  | > 100 | 
